For data set [1], the system named is Plasmodium falciparum. The data set is described as follows: Antimalarial activity against Plasmodium falciparum 3D7 infected in ARh+ human erythrocytes after 42 to 48 hrs by Picogreen staining-based 96 well microplate assay. The data set is classed as functional, organism-based.
The test system of data set [2] is Plasmodium falciparum. The data set is described as follows: Antimalarial activity against Plasmodium falciparum 3D7 infected in ARh+ human erythrocytes at 0.01 uM after 42 to 48 hrs by Picogreen staining-based 96 well microplate assay. The data set is classed as functional. The settings on record: read-out: GI.
In data set [3] the test system is Plasmodium falciparum. The experiment in a line: Antimalarial activity against Plasmodium falciparum 3D7 infected in ARh+ human erythrocytes at 1 uM after 42 to 48 hrs by Picogreen staining-based 96 well microplate assay. In kind it is functional. The settings on record: read-out: GI.
The test system of data set [4] is Plasmodium falciparum. The experiment in a line: Antimalarial activity against Plasmodium falciparum 3D7 infected in ARh+ human erythrocytes at 0.1 uM after 42 to 48 hrs by Picogreen staining-based 96 well microplate assay. The data set is classed as functional. The settings on record: read-out: GI.
Data set [5] has as its system Plasmodium falciparum. The data set is described as follows: Antimalarial activity against Plasmodium falciparum 3D7 infected in ARh+ human erythrocytes at 10 uM after 42 to 48 hrs by Picogreen staining-based 96 well microplate assay. In kind it is functional. The settings on record: read-out: GI.
A further data set has as its system hERG (KCNH2). The data set is described as follows: Selectivity index, ratio of IC50 for inhibition of human ERG expressed in Xenopus laevis oocytes to IC50 for Plasmodium falciparum 3D7. In kind it is toxicity, cell-based. The settings on record: read-out: Ratio IC50.
For data set [6], the target named is Voltage-gated inwardly rectifying potassium channel KCNH2 (Homo sapiens, UniProt Q12809). The data set is described as follows: Inhibition of human ERG expressed in Xenopus laevis oocytes by two-electrode voltage clamp assay. The data set is classed as cell-based. (In general: Two-electrode voltage clamp is typically applied to oocytes expressing channels or transporters.)
Sequence of Voltage-gated inwardly rectifying potassium channel KCNH2 (Q12809 whole entry): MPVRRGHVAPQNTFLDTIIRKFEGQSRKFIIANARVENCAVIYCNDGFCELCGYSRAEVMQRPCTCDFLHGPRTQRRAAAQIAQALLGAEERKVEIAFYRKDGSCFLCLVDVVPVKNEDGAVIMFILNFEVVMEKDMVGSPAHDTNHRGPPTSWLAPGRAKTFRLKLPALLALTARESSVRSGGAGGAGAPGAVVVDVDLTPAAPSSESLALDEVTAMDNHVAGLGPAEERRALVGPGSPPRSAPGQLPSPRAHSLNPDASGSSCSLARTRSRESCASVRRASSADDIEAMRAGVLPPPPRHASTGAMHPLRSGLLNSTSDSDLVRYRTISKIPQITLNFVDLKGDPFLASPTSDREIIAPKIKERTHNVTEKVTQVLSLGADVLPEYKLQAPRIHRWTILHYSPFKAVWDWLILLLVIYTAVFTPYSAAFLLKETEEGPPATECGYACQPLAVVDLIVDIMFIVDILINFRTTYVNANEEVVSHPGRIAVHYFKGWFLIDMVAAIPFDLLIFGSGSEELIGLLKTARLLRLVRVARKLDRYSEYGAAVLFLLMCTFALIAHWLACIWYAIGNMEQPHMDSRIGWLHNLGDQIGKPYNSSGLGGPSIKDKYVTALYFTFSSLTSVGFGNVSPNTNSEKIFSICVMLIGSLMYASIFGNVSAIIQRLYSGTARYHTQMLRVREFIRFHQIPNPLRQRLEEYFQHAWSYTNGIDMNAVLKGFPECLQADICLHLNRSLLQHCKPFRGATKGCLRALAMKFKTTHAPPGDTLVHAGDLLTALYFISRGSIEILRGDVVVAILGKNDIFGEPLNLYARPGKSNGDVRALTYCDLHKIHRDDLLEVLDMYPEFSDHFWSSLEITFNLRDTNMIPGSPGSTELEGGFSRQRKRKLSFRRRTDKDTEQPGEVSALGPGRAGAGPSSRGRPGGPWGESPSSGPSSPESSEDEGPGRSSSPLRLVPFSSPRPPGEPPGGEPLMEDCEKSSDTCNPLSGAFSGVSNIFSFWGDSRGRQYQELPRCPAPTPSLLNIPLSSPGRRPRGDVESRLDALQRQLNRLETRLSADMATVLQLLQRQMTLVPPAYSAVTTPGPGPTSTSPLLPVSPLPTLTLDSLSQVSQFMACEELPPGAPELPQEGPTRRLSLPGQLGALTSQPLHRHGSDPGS

The subject of data set [7] is Plasmodium falciparum. The data set is described as follows: Antiplasmodial activity against Plasmodium falciparum K1 at 0.002 to 100 ug/ml by serial drug dilution assay. In kind it is functional, organism-based.

As for `COc1ccc(CCN2CCN(c3nc4ccccc4n3Cc3ccc(F)cc3)CC2)cc1`, inhibition in the data set on Plasmodium falciparum [1] was half-maximal at 6.53 µM (IC50). The inhibition of growth at 0.01 µM in the data set with Plasmodium falciparum [2] was 0%. In the data set with Plasmodium falciparum [3], the inhibition of growth at 1 µM turned out to be 21%. Moreover, the inhibition of growth at 0.1 µM with Plasmodium falciparum [4] was 0%. Further, the inhibition of growth at 10 µM in the data set with Plasmodium falciparum [5] turned out to be 57%.
As for `CCCCCCCCCCn1c(NC2CCN(CCc3ccc(OC)cc3)CC2)nc2ccccc21`, the IC50 with Plasmodium falciparum [1] was 0.05 to 0.113 µM; in data set [6] it was 2.07 µM. The selectivity ratio with hERG (KCNH2) was 18.4. Also, the inhibition of growth at 0.01 µM in the data set on Plasmodium falciparum [2] is 0%. Also, the inhibition of growth at 1 µM with Plasmodium falciparum [3] was 100%. Also, the inhibition of growth at 0.1 µM in the data set on Plasmodium falciparum [4] is 77%. For the same compound, the inhibition of growth at 10 µM with Plasmodium falciparum [5] came to 100%.
As for `CCCCCCCCn1c(NC2CCN(CCc3ccc(OC)cc3)CC2)nc2ccccc21`, the results for the half-inhibitory concentration (IC50) (with Plasmodium falciparum [1]; in data set [6]) were 0.029 to 0.0296 µM and 3.27 µM, respectively. For the same compound, the selectivity ratio with hERG (KCNH2) came out at 110. For the same compound, the inhibition of growth at 0.01 µM with Plasmodium falciparum [2] was determined as 4%. Moreover, the inhibition of growth at 1 µM in the data set with Plasmodium falciparum [3] came out at 96%. Further, the inhibition of growth at 0.1 µM in the data set on Plasmodium falciparum [4] was 93%. Also, the inhibition of growth at 10 µM in the data set on Plasmodium falciparum [5] amounted to 100%.
Turning to `COc1ccc(CCN2CCC(Nc3nc4ccccc4n3CC3CCCCC3)CC2)cc1`, the half-inhibitory concentration (IC50) in the data set on Plasmodium falciparum [1] is 0.0394 to 0.044 µM; in data set [6] it was 0.00327 µM. In addition, the selectivity ratio in the data set on hERG (KCNH2) was 0.1. For the same compound, the inhibition of growth at 0.01 µM in the data set with Plasmodium falciparum [2] was 1%. Besides, in the data set with Plasmodium falciparum [3], the inhibition of growth at 1 µM turned out to be 100%. The inhibition of growth at 0.1 µM with Plasmodium falciparum [4] came out at 80%. Further, the inhibition of growth at 10 µM in the data set with Plasmodium falciparum [5] turned out to be 100%.
Consider `COc1ccc(CCN2CCC(Nc3nc4ccccc4n3Cc3ccc(F)cc3F)CC2)cc1`, for which the values for the IC50 (in the data set with Plasmodium falciparum [1]; in data set [6]) were 0.085 to 0.102 µM and 0.178 µM, respectively. For the same compound, in the data set with hERG (KCNH2), the selectivity ratio is 1.7. Further, the inhibition of growth at 0.01 µM in the data set with Plasmodium falciparum [2] is 0%. Further, in the data set with Plasmodium falciparum [3], the inhibition of growth at 1 µM is 100%. The inhibition of growth at 0.1 µM in the data set on Plasmodium falciparum [4] was 55%. Further, the inhibition of growth at 10 µM in the data set with Plasmodium falciparum [5] stood at 80%.
Turning to `COc1ccc(CCN2CCC(Nc3nc4ccccc4[nH]3)CC2)cc1`, the results for the IC50 (in the data set on Plasmodium falciparum [1]; in data set [6]) were 0.078 to 0.0797 µM and 0.164 µM, respectively. In the data set on hERG (KCNH2), the selectivity ratio came out at 2.1. In addition, the inhibition of growth at 0.01 µM in the data set with Plasmodium falciparum [2] turned out to be 6%. In addition, the inhibition of growth at 1 µM in the data set with Plasmodium falciparum [3] came out at 100%. The inhibition of growth at 0.1 µM in the data set with Plasmodium falciparum [4] amounted to 52%. Further, the inhibition of growth at 10 µM in the data set with Plasmodium falciparum [5] was 100%.
Consider `COc1ccc(CCN2CCC(Nc3nc4ccccc4n3CCC(C)C)CC2)cc1`, for which the IC50 in the data set on Plasmodium falciparum [1] is 0.028 to 0.092 µM; in data set [6], 0.212 µM. For the same compound, the selectivity ratio with hERG (KCNH2) worked out at 7.6. Moreover, the inhibition of growth at 0.01 µM in the data set with Plasmodium falciparum [2] is 0%. Also, the inhibition of growth at 1 µM with Plasmodium falciparum [3] was 100%. In addition, in the data set on Plasmodium falciparum [4], the inhibition of growth at 0.1 µM came out at 54%. Moreover, the inhibition of growth at 10 µM with Plasmodium falciparum [5] worked out at 97%.
In the case of `CN(C)CCC=C1c2ccccc2CCc2ccccc21` [AMITRIPTYLINE], inhibition in the data set on Plasmodium falciparum [7] was half-maximal at 0.5 µM (IC50).
Regarding `COc1ccc(CCN2CCC(Nc3nc4ccccc4n3Cc3ccc(F)cc3)CC2)cc1` [ASTEMIZOLE], in the data set with Plasmodium falciparum [1], the IC50 was in the range of 0.162 to 0.171 µM. The inhibition of growth at 0.01 µM in the data set on Plasmodium falciparum [2] was 0%. For the same compound, the inhibition of growth at 1 µM in the data set with Plasmodium falciparum [3] worked out at 91%. For the same compound, the inhibition of growth at 0.1 µM in the data set with Plasmodium falciparum [4] was 37%. Further, the inhibition of growth at 10 µM in the data set with Plasmodium falciparum [5] is 99%.
Regarding `OCCN1CCN(CCCN2c3ccccc3Sc3ccc(C(F)(F)F)cc32)CC1` [FLUPHENAZINE], the IC50 in the data set with Plasmodium falciparum [7] was determined as 0.5 µM.
In the data set with Plasmodium falciparum [7], `CNCCC=C1c2ccccc2CCc2ccccc21` [NORTRIPTYLINE] displayed an IC50 of 0.5 µM.
Still for that read-out and setting: then `CN(C)CCCN1c2ccccc2Sc2ccccc21` [PROMAZINE], with 0.5 µM.
Compound `Fc1ccc(Cn2c(NC3CCNCC3)nc3ccccc32)cc1` [TECASTEMIZOLE] came in with an IC50 with Plasmodium falciparum [1] of 2.3 µM. The inhibition of growth at 0.01 µM in the data set on Plasmodium falciparum [2] was determined as 5%. The inhibition of growth at 1 µM in the data set on Plasmodium falciparum [3] was determined as 17%. Further, in the data set with Plasmodium falciparum [4], the inhibition of growth at 0.1 µM was found to be 0%. In addition, in the data set on Plasmodium falciparum [5], the inhibition of growth at 10 µM is 100%.

By IC50 is commonly meant the point on the concentration scale where inhibition reaches its midpoint. The low end stands for inhibition by little substance, the high end for a need for much substance.

Source of the values: ChEMBL document CHEMBL4177615 (Bioorg Med Chem, 2017).
